PubChem BioAssay AID2305 (GlaxoSmithKline (GSK), 2010)

system: P. falciparum 3D7 growth, pLDH absorbance; assay: blood-stage malaria parasite growth potency – strain 3D7, dose response (AID 2305)

Compound	IC50 [nM]
O=[N+]([O-])c1cccc(CNC2CCN(Cc3ccc(-c4ccccc4)cc3)CC2)c1	230
COc1ccc(Cn2c(N3CCN(S(=O)(=O)c4ccc(OC)cc4)CC3)nc3c2c(=O)n(CC2CC2)c(=O)n3CC2CC2)cc1	890
COc1ccc2nccc([C@@H](O)CN3CCC(NCC(=O)Nc4cc(F)cc(F)c4)CC3)c2n1	910
CCNc1cc(C(=O)N[C@@H](Cc2ccccc2)[C@H](O)CNC(C)CCCC(C)C)cc(N2CCCS2(=O)=O)c1 (stereo partly drawn)	220
Cc1c(Cn2nc(Cl)c(N3CCNCC3)cc2=O)cccc1NC(=O)Nc1ccc(-c2ccccc2)cc1	1380
CC(C)CNCc1cccc(-c2cccc(CN(CCCN3CCN(C)CC3)C(=O)NC3CCCCC3)c2)c1	760
O[C@H](c1cc(C(F)(F)F)nc2c(C(F)(F)F)cccc12)[C@@H]1CCCCN1	70
COc1c(C2CCN(CCCCNC(=O)c3ccc(-c4ccc(Cl)cc4)c(OCCN(C)C)c3)CC2)ccc2c1CCCC2	190
Cc1cc2nc(-c3cccc(C(=O)NC4CCN(Cc5ccccc5)CC4)c3)[nH]c2cc1C	830
Cc1ccc(C[C@H](C)NC[C@H](O)c2cccc(C(F)(F)F)c2)cc1	980
c1ccc(-c2ccc(CNCc3ccc(-c4cccc(-c5nc6ccccc6[nH]5)c4)cc3)s2)nc1	400
O=S(=O)(Nc1ccc(CCN2CCC(N3CCCCC3)CC2)cc1)c1ccc2ccccc2c1	1010
CCOc1ccc(C(C)NC(=O)c2ccc(OC)c(Br)c2)cc1OCC (stereo not drawn)	710
Cc1cc(C(=O)NCc2ccc(-c3c(C)noc3C)cc2)n(-c2ccccc2)n1	820
c1ccc(CCNCc2ccc(-c3ccc(CNC4CCN(Cc5ccccc5)CC4)cc3)nc2)cc1	450
CCCCCC1c2[nH]c3ccccc3c2CCN1C(=O)OCc1ccccc1 (stereo not drawn)	390
CCNC(C)(C)CN(Cc1ccc(-c2ccc(C(F)(F)F)cc2)cc1)C(=O)Cn1c(SCc2ccc(F)cc2)nc(=O)c2c1CCC2	990
Clc1ccc(-c2ccc(C=NNc3nc(Nc4ccccc4)nc(Nc4ccccc4)n3)o2)cc1Cl	740
COc1cccc(-c2csc(C(=O)NCC3CCN(Cc4ccc(C(C)(C)C)cc4)C3)c2)c1 (stereo not drawn)	1180
CN1CCC(N2CCN(Cc3cccc(-c4ccc(-c5nc6ccc(F)cc6[nH]5)cc4)c3)CC2)CC1	110
COc1ccccc1C1CCN(CCN2CCC(NC(=O)c3ccc(-c4ccc(C#N)cc4)cc3)CC2)CC1	790
O=C(NC1CCN(Cc2ccccc2)CC1)c1cc(-c2ccncc2)nc2ccc(Cl)cc12	920
O=C(Oc1ccc(Cl)cc1C(=O)Nc1ccc([N+](=O)[O-])cc1Cl)c1ccccc1	910
CC=CC1CCNC(C(O)c2ccnc3ccc(OC)cc23)C1 (stereo not drawn)	1090

Compound	IC50 [nM]
CCc1c(CCNCCCCCCNC(C)Cc2ccc3c(c2CC)OCO3)ccc(OC)c1OC (stereo not drawn)	870
COc1cc(CNC(=S)NN=C(C)c2ccccn2)cc(OC)c1OC	400
c1cc(CNCCc2ccncc2)cc(-c2cccc(-c3nc4ccccc4[nH]3)c2)c1	150
Cc1c(C(=O)Nc2cc(Sc3ccc(F)cc3)cc([N+](=O)[O-])c2)sc2ncn(Cc3cccc(F)c3)c(=O)c12	720
CO/C(=C\C=C\c1cc2cc(Cl)c(Cl)cc2[nH]1)C(=O)NC1CCN(CCOc2ccccc2)CC1	610
O=C(Nc1ccccc1)N(Cc1ccc(-c2ccc(CNCc3ccc4c(c3)OCO4)cc2)cc1)C1CCN(Cc2ccccc2)CC1	570
CCn1c(Sc2ccc(C#N)c([N+](=O)[O-])c2)nnc1-c1ccc(OC)cc1	810
CCc1ccc(CN2CCC(NC(=O)c3ccc(-c4ccccc4F)s3)CC2)cc1	1490
Cc1ccc2nc(-c3cc(-c4ccc(CO)cc4)cnc3N)[nH]c2c1	860
Cc1[nH]c2ccc([N+](=O)[O-])cc2c1C1=CCN(C)CC1	330
Cc1cccc(C)c1CNc1ccnc2cc(C#N)ccc12	680
O=C(NCC1CC1)C1CCN(C(c2ccccc2)c2cc(F)cc(F)c2)CC1 (stereo not drawn)	380
c1ccc(CN2CCN(CCCCNc3c4ccccc4nc4ccccc34)CC2)cc1	120
CC[C@H]1CN2CC[C@H]1C[C@H]2[C@H](O)c1cc(/C=C/c2ccc(F)cc2)nc2ccc(OC)cc12	30
CCCNCc1ccc(-c2ccc(CN(CCOC)C(=O)CCCOCc3ccccc3)cc2)nc1	1160
O=C(/C=C/c1ccc(Cl)c(Cl)c1)NCCCCCN1CCCN(C(=O)Nc2ccc([N+](=O)[O-])cc2)CC1	620
CC(C)c1cc(C(=O)N[C@@H](Cc2ccccc2)[C@H](O)CNC2CCCCC2)cc(N2CCCC2=O)c1	120
COc1cc2nc(N(C)C3CCN(Cc4ccccc4)CC3)nc(N)c2cc1OC	330
Oc1ccc(CCNc2nc(NCCCOc3ccccc3-c3cccc(C(F)(F)F)c3)nc(N3CCNCC3)n2)cc1	880
CSc1ccc2ccccc2c1CCNCCCCNCCc1c(SC)ccc2ccccc12	410
NS(=O)(=O)c1cccc(Br)c1	890
Cc1cccc2[nH]c(-c3ccc(-c4ccc(CN5CCC(N)C5)cc4)s3)nc12 (stereo not drawn)	370
COc1ccc(C(c2ccc(N(C)C)cc2)c2ccc(N(C)C)cc2)cc1	60
COc1ccc2c(=O)c3ccc(OC)cc3[nH]c2c1	810
